Results: patent US7595320B2, “Hydrazinocarbonyl-thieno[2,3-C]pyrazoles, process for preparing them, compositions containing them and use thereof” (Aventis Pharma S.A., priority 2005, dated 2009)

Tests used:
Format in all cases: biochemical
CDK2/cycline E = molecular target: T1, CDK2/cycline E (Homo sapiens, UniProt P24941); test: CDK2/cyclineE Flashplate test in 96-well format; conditions: CDK2/cycline E complex, 1 μM ATP
T1 construct: made in house; host or cells: Sf21 insect cells (baculovirus coinfection)
Procedure: Two recombinant baculoviruses bearing the human sequences coding, respectively, for CDK2 and cyclineE (the latter bearing a C-terminal hexahistidine tag) are used to coinfect Sf21 insect cells. Two to three days after the start of coinfection, the cells are harvested by centrifugation and then stored at −40° C. until the time of use.
A format in streptavidin-coated 96-well plates is used to test the activity of the compounds on the kinase activity of CDK2/cycline E.
To perform this test, the biotinylated peptide substrate, a fragment of the protein pRb (biotinyl-[…]-OH), is dissolved at a concentration of 1 mM in kinase buffer (HEPES/NaOH 50 mM, NaCl 1 mM, MgCl2 5 mM, pH 7.5) in order to constitute a stock solution stored at −20° C. in the form of 110 μL aliquots. On the day of the experiment, an aliquot of this solution is thawed and diluted in kinase buffer containing 1 mM of dithiothreitol, added to the buffer extemporaneously, in order to obtain a concentration of 14.3 μM. 70 μL of this solution are added to each well of the Flashplate in order to obtain a final substrate concentration of 10 μM during the enzymatic reaction performed in a final volume of the reaction medium of 100 μL (cf. below).
Intermediate dilutions of inhibitors (products of the invention) at various concentrations are prepared in DMSO from stock solutions at 10 mM in separate tubes. Dilutions at 1000 μM, 333.3 μM, 111.1 μM, 37.03 μM, 12.35 μM, 4.11 μM and 1.37 μM are thus prepared. One μL of each of these solutions (or 1 μL of DMSO for the controls) is transferred into the wells of the test plate.
19 μl of a solution of a mixture of adenosine triphosphate (ATP) and of ATPγ^33P in kinase buffer at a total concentration of 5.26 μM of ATP and 52.6 μCi/ml of ^33P are then added to each well. The enzymatic reaction is initiated by adding 10 μL per well of a 200 nM solution of CDK2/cycline E in kinase buffer containing 1 mM of dithiothreitol (or 10 μL of kinase buffer containing 1 mM of dithiothreitol for the reaction blanks).
After addition of each of the reagents, the final volume of each well is 100 μL, the final concentration of substrate is 10 μM, the final inhibitor concentrations are 10 μM, 3.33 μM, 1.11 μM, 0.37 μM, 0.123 μM, 0.041 μM and 0.014 μM (according to the concentration of the intermediate dilution), the final ATP concentration is 1 μM, the final amount of ^33P is 1 μCi/well, and the final concentration of CDK2/cycline E complex is 20 nM.
After addition of all of the reagents, the test plate is incubated at 30° C. with orbital shaking at 650 rpm.
When the incubation is complete, the plate is washed three times with 300 μL per well of PBS (phosphate-buffered saline, pH=7.4, without calcium or magnesium, reference 10010-015, Gibco BRL). The incorporation of ^33P to the peptide is quantified by scintillation counting with a Packard Topcount.NXT machine.

Aurora2 = molecular target: T2, Aurora2 (Homo sapiens, UniProt O14965); test: Aurora2 enzymatic test, NuMA phosphorylation with [33P]ATP, Flashplate; conditions: whole recombinant protein, 1 μM ATP
T2 construct: Aurora2: whole recombinant protein comprising an N-terminal histidine tail; His tag (N); made in house; host or cells: E. coli
T2 sequence (O14965 1-403): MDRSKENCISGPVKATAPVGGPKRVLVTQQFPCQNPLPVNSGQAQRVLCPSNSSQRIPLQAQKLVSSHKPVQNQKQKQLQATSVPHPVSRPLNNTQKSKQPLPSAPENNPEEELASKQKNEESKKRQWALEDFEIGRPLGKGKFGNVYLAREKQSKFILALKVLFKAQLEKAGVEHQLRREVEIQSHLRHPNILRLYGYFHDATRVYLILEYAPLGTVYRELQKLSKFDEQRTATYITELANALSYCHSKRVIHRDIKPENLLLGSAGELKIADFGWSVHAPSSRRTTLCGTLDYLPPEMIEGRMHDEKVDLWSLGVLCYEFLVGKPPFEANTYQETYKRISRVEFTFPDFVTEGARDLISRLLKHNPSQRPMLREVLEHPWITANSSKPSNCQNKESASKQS
Procedure: (§1) The inhibitory effect of compounds with respect to the kinases Aurora1 and Aurora2 is determined by means of an enzymatic test using radioactivity detection.
(§2) The kinase activity of Aurora1 and Aurora2 is evaluated via the phosphorylation of the substrate Numa-histidine in the presence of radiolabelled ATP ([^33P]ATP) using 96-well Flashplate plates in which the nickel chelate is bound to the surface of the microplate. The amount of ^33P phosphate incorporated into the NuMA substrate is proportional to the activity of the enzyme Aurora1 or Aurora2.
Aurora2: whole recombinant protein comprising an N-terminal histidine tail, was expressed in E. coli and purified to more than 82%.
(§3) NuMA (nuclear protein that combines with the mitotic apparatus): 424-amino acid fragment, expressed in E. coli, the N-terminal end of which has been labeled with histidine, and used as substrate for the two Aurora enzymes.
(§4) The microplates used are 96-well Flash-Plate plates, nickel chelate (Perkin-Elmer, model SMP107).
(§5) The products to be evaluated are incubated in a reaction volume of 100 μL per well, in the presence of 10 nM of Aurora1 or Aurora2, 500 nM of NuMA substrate in a buffer composed of 50 mM Tris/HCl (pH 7.5), 50 mM NaCl, 5 mM MgCl2 (Aurora-B) or 10 mM MgCl2 (Aurora-A) and 1 mM DTT, at 37° C.
(§6) 80 μL of enzyme/substrate incubation buffer are distributed in each well, followed by 10 μL of product to be evaluated, at variable concentrations. The reaction is initiated by adding 1 μM final of ATP containing 0.2 μCi of [^33P]ATP (10 μL). After incubating for 30 minutes, the reaction is quenched by simple removal of the reaction buffer and each well is washed twice with 300 μl of Tris/HCl buffer. The radioactivity is then measured in each well using a Packard, Top-Count model scintillation machine.
(§7) The control enzymatic activity of Aurora is expressed by the number of counts per minute obtained over 30 minutes after subtracting the background noise (reaction mixture containing no enzyme). The evaluation of the various test products is expressed as a percentage of inhibition of the Aurora activity relative to the control.

Tie2 = molecular target: T3, Tie2 (Homo sapiens, UniProt Q02763); test: Tie2 kinase test, phosphorylation of PLC with GST-Tie2; conditions: GST-Tie2 intracellular domain 776-1124
T3 construct: amino acids of the intracellular domain 776-1124; made in house; host or cells: baculovirus expression (pFastBacGT vector)
T3 sequence (Q02763 776-1124): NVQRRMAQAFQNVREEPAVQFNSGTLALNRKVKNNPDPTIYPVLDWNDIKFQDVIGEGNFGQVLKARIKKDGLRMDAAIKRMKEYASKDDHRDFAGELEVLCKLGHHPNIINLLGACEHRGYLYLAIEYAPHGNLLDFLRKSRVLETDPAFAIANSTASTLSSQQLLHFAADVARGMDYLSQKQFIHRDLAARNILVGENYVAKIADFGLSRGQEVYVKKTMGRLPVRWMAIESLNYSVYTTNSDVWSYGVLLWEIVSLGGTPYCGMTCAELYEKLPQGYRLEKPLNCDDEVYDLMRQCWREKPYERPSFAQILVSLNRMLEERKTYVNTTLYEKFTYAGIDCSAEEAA
Procedure: The coding sequence of human Tie2 corresponding to the amino acids of the intracellular domain 776-1124 was generated by PCR using the cDNA isolated from a human placenta as a model. This sequence was introduced into a pFastBacGT baculovirus expression vector in the form of a GST fusion protein.
The inhibitory effect of the molecules is determined in a test of phosphorylation of PLC with Tie2 in the presence of GST-Tie2 purified to about 80% homogeneity. The substrate is composed of the SH2-SH3 fragments of PLC expressed in the form of a GST fusion protein.
The kinase activity of Tie2 is measured in a MOPS 20 mM pH 7.2 buffer, containing 10 mM MgCl2, 10 mM MnCl2, 1 mM DTT, 10 mM of glycerophosphate. In a 96-well FlashPlate plate maintained on ice, a reaction mixture is deposited, composed of 70 μL of kinase buffer containing 100 ng of enzyme GST-Tie2 per well. Next, 10 μL of the test molecule diluted in DMSO to a maximum concentration of 10% are added. For a given concentration, each measurement is performed four times. The reaction is initiated by adding 20 μL of solution containing 2 μg of GST-PLC, 2 μm of cold ATP and 1 μCi of ^33P[ATP]. After incubation for one hour at 37° C., the reaction is stopped by adding 1 volume (100 μl) of 200 mM EDTA. After removal of the incubation buffer, the wells are washed three times with 300 μL of PBS. The radioactivity is measured on a MicroBeta1450 Wallac.
The inhibition of the Tie2 activity is calculated and expressed as a percentage of inhibition relative to the control activity determined in the absence of compound.

Aurora1 = molecular target: T4, Aurora1 (Homo sapiens, UniProt Q96GD4); test: Aurora1 enzymatic test, NuMA phosphorylation with [33P]ATP, Flashplate; conditions: Aurora-B/INCENP-C3 recombinant complex, 1 μM ATP
T4 construct: His tag (N); made in house
T4 sequence (Q96GD4 whole entry, species assumed): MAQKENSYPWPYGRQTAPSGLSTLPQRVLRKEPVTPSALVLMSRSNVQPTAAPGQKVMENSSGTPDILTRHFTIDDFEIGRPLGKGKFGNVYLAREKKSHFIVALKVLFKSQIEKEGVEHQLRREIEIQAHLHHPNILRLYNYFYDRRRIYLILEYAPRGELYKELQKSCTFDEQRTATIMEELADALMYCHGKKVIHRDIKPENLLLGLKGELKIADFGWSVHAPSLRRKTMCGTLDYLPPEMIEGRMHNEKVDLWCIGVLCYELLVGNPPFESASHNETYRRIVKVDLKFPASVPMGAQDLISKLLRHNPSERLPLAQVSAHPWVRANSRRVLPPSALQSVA
T4 sequence (Q9NQS7 835-903 partner limits assumed, species assumed): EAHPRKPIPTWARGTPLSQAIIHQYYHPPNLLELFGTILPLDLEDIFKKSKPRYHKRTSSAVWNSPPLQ
Procedure: as §1, §2
Aurora1: Aurora-B/INCENP-C3 recombinant complex, purified to about 50%, the N-terminal end of Aurora-B of which has been labeled with histidine.
as §3, §4, §5, §6, §7

SMILES | IC50 (CDK2/cycline E) [nM] | IC50 (Aurora2) [nM] | IC50 (Tie2) [nM] | IC50 (Aurora1) [nM]
CN(NC(=O)c1cc2c(NC(=O)c3ccc(CN4CCCOCC4)cc3)n[nH]c2s1)c1ccc(Cl)cc1 [Example 21b, N-{5-[N′-(4-chlorophenyl)-N′-methylhydrazinocarbonyl]-1H-thieno[2,3-c]pyrazol-3-yl}-4-perhydro-1,4-oxazepin-4-ylmethylbenzamide] | 82 | 34 | 301 | 160
CN(C)CCN(C)Cc1ccc(C(=O)Nc2n[nH]c3sc(C(=O)NN(C)c4ccccc4)cc23)cc1 [Example 20a, 4-{[(2-dimethylaminoethyl)methylamino]methyl}-N-[5-(N′-methyl-N′-phenylhydrazinocarbonyl)-1H-thieno[2,3-c]pyrazol-3-yl]benzamide] | 347 | 70 | 842 | 190
COc1ccc(C(=O)Nc2n[nH]c3sc(C(=O)NNCc4ccccc4)cc23)cc1 [Example 26, N-[5-(N′-benzylhydrazinocarbonyl)-1H-thieno[2,3-c]pyrazol-3-yl]-4-methoxybenzamide] | 75 | 23 | 175 | 42
CN1CCN(c2ccc(C(=O)Nc3n[nH]c4sc(C(=O)NNCc5ccccc5)cc34)cc2)CC1 [Example 32, N-[5-(N′-benzylhydrazinocarbonyl)-1H-thieno[2,3-c]pyrazol-3-yl]-4-(4-methylpiperazin-1-yl)benzamide] | 109 | 4 | 38 | 25
CN(NC(=O)c1cc2c(NC(=O)c3ccc(CN4CCCC4)cc3)n[nH]c2s1)c1ccc(Cl)cc1 [Example 18b, N-[5-(N′-(4-chlorophenyl)-N′-methylhydrazinocarbonyl)-1H-thieno[2,3-c]pyrazol-3-yl]-4-pyrrolidin-1-ylmethylbenzamide] | 96 | 50 | 388 | 287
CN1CCCN(Cc2ccc(C(=O)Nc3n[nH]c4sc(C(=O)NN(C)c5ccccc5)cc34)cc2)CC1 [Example 12a, 4-(4-methylperhydro-1,4-diazepin-1-ylmethyl)-N-[5-(N′-methyl-N′-phenylhydrazinocarbonyl)-1H-thieno[2,3-c]-pyrazol-3-yl]benzamide] | 126 | 31 | 564 | 128
COc1ccc(C(=O)Nc2n[nH]c3sc(C(=O)NNc4ccccc4)cc23)cc1 [Example 1] | 177 | 8 | 117 | 8
CCN(CC)CCNCc1ccc(C(=O)Nc2n[nH]c3sc(C(=O)NN(C)c4ccccc4)cc23)cc1 [Example 23a, 4-[(2-diethylaminoethylamino)methyl]-N-[5-(N′-methyl-N′-phenylhydrazinocarbonyl)-1H-thieno[2,3-c]pyrazol-3-yl]-benzamide] | 143 | 65 | 431 | 199

More lines, now with the values ahead:

IC50 (CDK2/cycline E) [nM] | IC50 (Aurora2) [nM] | IC50 (Tie2) [nM] | IC50 (Aurora1) [nM] | SMILES
54 | 20 | 56 | 32 | CCN(NC(=O)c1cc2c(NC(=O)c3ccc(N4CCN(C)CC4)cc3)n[nH]c2s1)c1ccc(F)cc1 [Example 37, N-{5-[N′-ethyl-N′-(4-fluorophenyl)hydrazinocarbonyl]-1H-thieno[2,3-c]pyrazol-3-yl}-4-(4-methylpiperazin-1-yl)benzamide]
32 | 1 | 8 | 5 | CCN(NC(=O)c1cc2c(NC(=O)c3ccc(N4CCN(C)CC4)cc3)n[nH]c2s1)c1cccc(Br)c1 [Example 43, N-{5-[N′-(3-bromophenyl)-N′-ethylhydrazinocarbonyl]-1H-thieno[2,3-c]pyrazol-3-yl}-4-(4-methylpiperazin-1-yl)benzamide]
221 | 6 | 128 | 12 | CN1CCN(c2ccc(C(=O)Nc3n[nH]c4sc(C(=O)NN(C)Cc5ccccc5)cc34)cc2)CC1 [Example 30, N-[5-(N′-benzyl-N′-methylhydrazinocarbonyl)-1H-thieno[2,3-c]pyrazol-3-yl]-4-(4-methylpiperazin-1-yl)benzamide]
